Data published in patent publication US11767310B2, “Nicotinamide RIPK1 inhibitors” (AbbVie Inc., priority 2021, dated 2023).
Marks after values point to notes of the source that are not given here.

What was measured:
[1] = Prodrug bioconversion in intestinal S9 cell fractions; assay type: in vitro ADME
Experimental: (§1) Phosphatase enzymes are […] expressed with unique tissue specific isoforms and are key catalysts in the conversion of phosphate-containing prodrugs. To determine if exemplary phosphate prodrug compounds of the invention are enzymatically converted to the parent molecule across relevant species, the prodrug compounds were incubated with intestinal S9 cell fractions obtained from mouse, rat, dog, monkey, and human.
[…] Incubations were conducted in the absence and presence of 1 mM sodium orthovanadate, a phosphatase inhibitor. Prodrug depletion and parent formation were monitored by LC-MS/MS and normalized to internal standard as the analyte peak area ratio.

[2] = as above; assay type: in vitro ADME; conditions: 0.25 mg/mL
Experimental: as §1
Phosphate prodrugs were incubated (1 μM) for up to 2 hours in Tris-Cl buffer (pH 7.4) containing 3 mM magnesium chloride, intestinal S9 protein ([…] (ms, rat, hu, Table F) from mouse, rat, dog, monkey or human. Incubations were conducted in the absence and presence of 1 mM sodium orthovanadate, a phosphatase inhibitor. Prodrug depletion and parent formation were monitored by LC-MS/MS and normalized to internal standard as the analyte peak area ratio.

[3] = tested on: U937 cells; assay: U937 TNF/zVAD Cytotoxicity Cell Assay; assay type: cell-based; conditions: Homo sapiens, U-937; TNFα 10 ng/mL + Z-VAD FMK 20 μM, 16-20 hours; read-out: U937 TNF/zVAD Induced Cytotoxicity IC50
Experimental: Compounds were tested for their ability to prevent TNF induced necroptosis in U937 cells. Treatment with TNF and the caspase inhibitor zVAD-FMK results in the activation and phosphorylation of RIPK1 and subsequent phosphorylation of RIPK3 and MLKL (Mixed Lineage Kinase Domain Like Pseudokinase), leading to induction of necroptotic cell death that is measured as a reduction in cell viability. Similar U937 assay protocols have been previously described; see, e.g., Harris et al., ACS Med. Chem. Letters (2013) 4:1238-1243 and Supplementary Information.
Test compounds were solvated in dimethyl sulfoxide (DMSO) and 3-fold serially diluted from 10 uM to 0.0005 uM with technical duplicates into an empty 384 well plate. U937 cells were resuspended at a concentration of 500,000 cells/mL in fresh RPMI (Roswell Park Memorial Institute) 1640 growth medium containing 10% heat inactivated fetal bovine serum (FB1S) and seeded into a 384 well plate containing compounds and incubated for 1 hour at 37° C. Following incubation, the cells were challenged with TNFα (final concentration of 10 ng/mL) and Z-VAD FMK (N-Benzyloxycarbonyl-Val-Ala-Asp(O-Me) fluoromethyl ketone; final concentration of 20 μM) for 16-20 hours at 37° C. Following the incubation with TNFα/Z-VAD, cells were lysed with Cell Titer-Glo and incubated for 5-10 minutes. The plate was then read on an Envision plate reader. Data was normalized and analyzed with Studies from Dotmatics.

[4] = Human, 0.01 mg/mL S9 protein, Table F
[5] = Human, 0.25 mg/mL S9 protein, Table F
[6] = Human, 0.25 mg/mL, Experiment 1
[7] = Human, 0.25 mg/mL, Experiment 2
[8] = Human, 0.25 mg/mL, Experiment 3
[9] = Human, 0.25 mg/mL, Mean of 3 experiments
[10] = Mouse, 0.01 mg/mL S9 protein, Table F
[11] = Mouse, 0.25 mg/mL S9 protein, Table F
[12] = Mouse, 0.25 mg/mL, Experiment 1
[13] = Mouse, 0.25 mg/mL, Experiment 2
[14] = Mouse, 0.25 mg/mL, Experiment 3
[15] = Mouse, 0.25 mg/mL, Mean of 3 experiments
[16] = Rat, 0.01 mg/mL S9 protein, Table F
[17] = Rat, 0.25 mg/mL S9 protein, Table F
[18] = Rat, 0.25 mg/mL, Mean of 3 experiments

| Structure (SMILES) | Clint (prodrug disappearance) [1, 4] | Clint (prodrug disappearance) [1, 5] | Clint (prodrug disappearance) [1, 6] | Clint (prodrug disappearance) [1, 7] | Clint (prodrug disappearance) [1, 8] | Clint (prodrug disappearance) [1, 9] | Clint (prodrug disappearance) [1, 10] | Clint (prodrug disappearance) [1, 11] | Clint (prodrug disappearance) [1, 12] | Clint (prodrug disappearance) [1, 13] | Clint (prodrug disappearance) [1, 14] | Clint (prodrug disappearance) [1, 15] | Clint (prodrug disappearance) [1, 16] | Clint (prodrug disappearance) [1, 17] | Clint (prodrug disappearance) ([1]; Rat, 0.25 mg/mL, Experiment 1) | Clint (prodrug disappearance) ([1]; Rat, 0.25 mg/mL, Experiment 2) | Clint (prodrug disappearance) ([1]; Rat, 0.25 mg/mL, Experiment 3) | Clint (prodrug disappearance) [1, 18] | Clint (prodrug disappearance) ([2]; Dog, Experiment 1) | Clint (prodrug disappearance) ([2]; Dog, Experiment 2) | other results |
| --- | --- | --- | --- | --- | --- | --- | --- | --- | --- | --- | --- | --- | --- | --- | --- | --- | --- | --- | --- | --- | --- |
| CN(C[C@H](Cc1ccccc1)OP(=O)(O)O)C(=O)c1cncc(C#Cc2cnn(C)n2)c1 [Example 23, (S)-1-(N-methyl-5-((2-methyl-2H-1,2,3-triazol-4-yl)ethynyl)nicotinamido)-3-phenylpropan-2-yl dihydrogen phosphate] | 1180.2 μL/min/mg intestinal S9 protein | 243.4 μL/min/mg intestinal S9 protein | 199 μL/min/mg intestinal S9 protein | 241 μL/min/mg intestinal S9 protein | 203 μL/min/mg intestinal S9 protein | 214 μL/min/mg intestinal S9 protein | <137** μL/min/mg intestinal S9 protein | 23.3 μL/min/mg intestinal S9 protein | 26.2 μL/min/mg intestinal S9 protein | 34.3 μL/min/mg intestinal S9 protein | 31.3 μL/min/mg intestinal S9 protein | 30.6 μL/min/mg intestinal S9 protein | <137** μL/min/mg intestinal S9 protein | 36.7 μL/min/mg intestinal S9 protein | 29.1 μL/min/mg intestinal S9 protein | 33.8 μL/min/mg intestinal S9 protein | 28.2 μL/min/mg intestinal S9 protein | 30.4 μL/min/mg intestinal S9 protein | 354 μL/min/mg intestinal S9 protein | 369 μL/min/mg intestinal S9 protein | Clint (prodrug disappearance) ([2]; Dog, Experiment 3): 345 μL/min/mg intestinal S9 protein; Clint (prodrug disappearance) ([2]; Dog, Mean of 3 experiments): 356 μL/min/mg intestinal S9 protein; Clint (prodrug disappearance) ([2]; Monkey, Experiment 1): 55.4 μL/min/mg intestinal S9 protein; Clint (prodrug disappearance) ([2]; Monkey, Experiment 2): 47.7 μL/min/mg intestinal S9 protein; Clint (prodrug disappearance) ([2]; Monkey, Experiment 3): 48.1 μL/min/mg intestinal S9 protein; Clint (prodrug disappearance) ([2]; Monkey, Mean of 3 experiments): 50.4 μL/min/mg intestinal S9 protein |
| Cc1ncc(C(=O)N(C)C[C@@H](O)Cc2ccccc2)cc1C#Cc1cnn(C)c1 [Example 14, (S)-N-(2-hydroxy-3-phenylpropyl)-N,6-dimethyl-5-((1-methyl-1H-pyrazol-4-yl)ethynyl)nicotinamide] |  |  |  |  |  |  |  |  |  |  |  |  |  |  |  |  |  |  |  |  | IC50 [3]: 18 nM |
| CN(C[C@H](Cc1ccccc1)OC(=O)CN)C(=O)c1cncc(C#Cc2cnn(C)n2)c1 [Example 25, (S)-1-(N-methyl-5-((2-methyl-2H-1,2,3-triazol-4-yl)ethynyl)nicotinamido)-3-phenylpropan-2-yl 2-aminoacetate, hydrochloric acid] | 378.1 μL/min/mg intestinal S9 protein | 410 μL/min/mg intestinal S9 protein | 272 μL/min/mg intestinal S9 protein | 294 μL/min/mg intestinal S9 protein | 293 μL/min/mg intestinal S9 protein | 286 μL/min/mg intestinal S9 protein | 6821.9 μL/min/mg intestinal S9 protein | >1640.7* μL/min/mg intestinal S9 protein | >480* μL/min/mg intestinal S9 protein | >480* μL/min/mg intestinal S9 protein | >480* μL/min/mg intestinal S9 protein | >480* μL/min/mg intestinal S9 protein | 1087.6 μL/min/mg intestinal S9 protein | 393.8 μL/min/mg intestinal S9 protein | 217 μL/min/mg intestinal S9 protein | 318 μL/min/mg intestinal S9 protein | 299 μL/min/mg intestinal S9 protein | 278 μL/min/mg intestinal S9 protein | 10.2 μL/min/mg intestinal S9 protein | 14.4 μL/min/mg intestinal S9 protein | Clint (prodrug disappearance) ([2]; Dog, Experiment 3): 11.5 μL/min/mg intestinal S9 protein; Clint (prodrug disappearance) ([2]; Dog, Mean of 3 experiments): 12.0 μL/min/mg intestinal S9 protein; Clint (prodrug disappearance) ([2]; Monkey, Experiment 1): 38.1 μL/min/mg intestinal S9 protein; Clint (prodrug disappearance) ([2]; Monkey, Experiment 2): 49.0 μL/min/mg intestinal S9 protein; Clint (prodrug disappearance) ([2]; Monkey, Experiment 3): 40.7 μL/min/mg intestinal S9 protein; Clint (prodrug disappearance) ([2]; Monkey, Mean of 3 experiments): 42.6 μL/min/mg intestinal S9 protein |
| CN(C[C@@H](O)Cc1ccccc1)C(=O)c1cncc(C#Cc2cnn(C)c2)c1 [Example 1, (S)-N-(2-hydroxy-3-phenylpropyl)-N-methyl-5-((1-methyl-1H-pyrazol-4-yl)ethynyl)nicotinamide] |  |  |  |  |  |  |  |  |  |  |  |  |  |  |  |  |  |  |  |  | IC50 [3]: 34 nM |
| CN(C[C@H](Cc1ccccc1)OC(=O)CN)C(=O)c1cncc(C#Cc2cnn(C(F)F)c2)c1 [Example 21, (S)-1-(5-((1-(difluoromethyl)-1H-pyrazol-4-yl)ethynyl)-N-methylnicotinamido)-3-phenylpropan-2-yl 2-aminoacetate, hydrochloric acid] | 815.9 μL/min/mg intestinal S9 protein | 592.9 μL/min/mg intestinal S9 protein | 391 μL/min/mg intestinal S9 protein | 400 μL/min/mg intestinal S9 protein | 355 μL/min/mg intestinal S9 protein | 382 μL/min/mg intestinal S9 protein | 11160 μL/min/mg intestinal S9 protein | >4166.5* μL/min/mg intestinal S9 protein | >480* μL/min/mg intestinal S9 protein | >480* μL/min/mg intestinal S9 protein | >480* μL/min/mg intestinal S9 protein | >480* μL/min/mg intestinal S9 protein | 2599.5 μL/min/mg intestinal S9 protein | 901.6 μL/min/mg intestinal S9 protein | 396 μL/min/mg intestinal S9 protein | 719 μL/min/mg intestinal S9 protein | 750 μL/min/mg intestinal S9 protein | 622 μL/min/mg intestinal S9 protein | 5.62 μL/min/mg intestinal S9 protein | 16.1 μL/min/mg intestinal S9 protein | Clint (prodrug disappearance) ([2]; Dog, Experiment 3): 14.3 μL/min/mg intestinal S9 protein; Clint (prodrug disappearance) ([2]; Dog, Mean of 3 experiments): 12.0 μL/min/mg intestinal S9 protein; Clint (prodrug disappearance) ([2]; Monkey, Experiment 1): 89.6 μL/min/mg intestinal S9 protein; Clint (prodrug disappearance) ([2]; Monkey, Experiment 2): 91.3 μL/min/mg intestinal S9 protein; Clint (prodrug disappearance) ([2]; Monkey, Experiment 3): 90.7 μL/min/mg intestinal S9 protein; Clint (prodrug disappearance) ([2]; Monkey, Mean of 3 experiments): 90.5 μL/min/mg intestinal S9 protein |
